The values that follow come from article PMC9022420 (Scientific Reports, 2022).

Several values for one entry are separate records, joined by “and”; a condition that tells them apart may be missing. Equal entries are not always repeated.

In series [1] the test system is ssRNA (EGFP-encoding mRNA, ~ 1 k nt). In words: ssRNA photocleavage, agarose gel electrophoresis. The settings on record: 10 µM flavin, 15 min white LED, PBS 0.1% DMSO. Format: biochemical. How it is done: (§1) A 20 µL aliquot was taken after 15 min of white LED irradiation (1 × 10^5 lx). Prior to loading, 2 µL of 6X Orange-G loading dye in glycerol were added to the aliquot and mixed vigorously. The gel was electrophoresed at 80 V for 35 min with 1% agarose gels in 1X Tris–acetate-EDTA (TAE) buffer. Gels were then imaged in a Syngene G:BOX Gel Documentation System and band % quantification was performed using ImageJ Gel Analyzer.

Series [2] can be described thus: UV-Vis absorption and emission spectra of flavins in DMSO. Conditions: measured in DMSO. Format: physicochemical.
Series [3] can be described thus: Fluorescence quantum yield determination. The series is classed as physicochemical. The settings on record: in DMSO; for φF fluorescence quantum yield: calculated using riboflavin as the reference. How it is done: 4 Fluorescence Quantum Yield Calculations
The fluorescence quantum yields (ФF) for F1-4 were determined by preparing a series of dilutions in DMSO ranging
in absorbance values from 0.02 to 0.10 and excited at their respective absorbance maxima (see Table S1).3 The
emission peak was then integrated and plotted against the absorbance value (see Figure S1). Riboflavin (from
according to equation (1):
Φ!;#$%&’( = Φ!;)(* $ !"#$%&% $ !"#$%&) % (1)
Where Slope = gradient from the plot of integrated emission peak vs. absorption value and η = refractive index
Flavin ε (M-1cm-1) λex (nm) λem (nm)
Figure S2: Plot of integrated emission peak against absorbance value of flavins F1-4 and reference compound

Another series deals with E. coli BL21(DE3). In words: Photodynamic inactivation of E. coli (CFU counting). Format: cell-based. How it is done:
After an overnight aerobic culture in LB broth at 37 °C with shaking at 225 rpm, the resulting E. coli were centrifuged at 2,500 rpm for 10 min. The pellet was resuspended in PBS (Sigma, 1x, pH 7.4) to an OD600 value of 0.6 (~ 1 × 10^8 bacteria per ml). […] Aliquots of negative controls (0.5% DMSO in PBS; PBS only) and 100 μM flavin-bacteria samples were covered in foil to remain in dark, while all samples were plated onto a 96-well plate and exposed to white LED irradiation (1 × 10^5 lx) for 15 min. After 15 min of irradiation or darkness, each sample was serially diluted to its respective, appropriate dilution and plated onto an LB agar plate with 50 μg/mL kanamycin. Plates were incubated overnight at 37 °C in the dark. Survival of bacteria was determined by counting colony forming units (CFUs) the next day.
For time point data, aliquots of 100 μM flavin-bacteria solutions were taken at 5-min increments of irradiation (0, 5, 10, and 15 min) and evaluated similarly as above. Time point experiment with one-minute increments, between 0 and 5 min, were conducted for 100 μM F4-bacteria samples.

A further series concerns pDNA (pUC18). The experiment in a line: pDNA photocleavage, agarose gel electrophoresis. The settings on record: 10 µM flavin, 15 min white LED, PBS 0.1% DMSO. Format: biochemical. How it is done:
as §1

[4] abbreviates: 10 µM flavin, 15 min irradiation.
The mark [5] stands for this setting: 100 µM flavin, 5 min irradiation (10.5 J/cm^2).
Setting [6] is: 100 µM flavin, 10 min irradiation.

As to `CCCCCCCCn1c(=O)nc2n(CCN)c3cc(C)c(C)cc3nc-2c1=O` [Flavin F1], the “% cleaved ssRNA” value in series [1] is 12%. Also, in series [2], the “λ1 (S0 → S1 absorption band)” value is 444 nm, the “λ2 (S0 → S2 absorption band)” value came out at 349 nm and the “λem (emission wavelength)” value worked out at 507 nm. Further, in series [3], the “ФF fluorescence quantum yield” value is 13% and the “φF fluorescence quantum yield” value is reported as 0.129 ± 0.012. The “E. coli log10 reduction of CFUs” value with E. coli BL21(DE3) (setting [4]) was 0.2 log10. Moreover, the “E. coli log10 reduction of CFUs” value with E. coli BL21(DE3) (setting [5]) is given as 0.1 log10. For the same compound, the “E. coli log10 reduction of CFUs” value in the series on E. coli BL21(DE3) (setting [6]) is 0.1 log10.

Turning to `CCCCCCCCn1c(=O)nc2n(CCNC(=N)N)c3cc(C)c(C)cc3nc-2c1=O` [Flavin F2], the “% cleaved ssRNA” value in series [1] was 46%. In addition, the “% NC (nicked coiled pDNA after photocleavage)” value with pDNA (pUC18) is given as 39%. Further, in series [2], the “λ1 (S0 → S1 absorption band)” value is given as 446 nm, the “λ2 (S0 → S2 absorption band)” value is 350 nm and the “λem (emission wavelength)” value is 512 nm. In addition, in series [3], the “ФF fluorescence quantum yield” value stood at 14% and the “φF fluorescence quantum yield” value was 0.141 ± 0.010. For the same compound, in the series on E. coli BL21(DE3) (100 µM flavin, 5 min irradiation), the “E. coli reduction of bacteria” value is above 99.9%. In addition, the “E. coli log10 reduction of CFUs” value in the series with E. coli BL21(DE3) (setting [5]) is recorded as 3.4 log10. The “E. coli log10 reduction of CFUs” value in the series with E. coli BL21(DE3) (setting [6]) amounted to 5.9 log10.

Regarding `CCCCCCCCn1c(=O)nc2n(CCN)c3cc(Br)c(Br)cc3nc-2c1=O` [Flavin F3], the “% cleaved ssRNA” value in series [1] came to 35%. For the same compound, in series [2], the “λ1 (S0 → S1 absorption band)” value is 443 nm, the “λ2 (S0 → S2 absorption band)” value stood at 336 nm and the “λem (emission wavelength)” value is on record as 508 nm. For the same compound, in series [3], the “ФF fluorescence quantum yield” value is recorded as below 2% and the “φF fluorescence quantum yield” value was 0.009 ± 0.013. In addition, in the series with E. coli BL21(DE3) (setting [4]), the “E. coli log10 reduction of CFUs” value is on record as 0.4 log10. Further, the “E. coli log10 reduction of CFUs” value in the series on E. coli BL21(DE3) (setting [5]) came out at 1.3 log10. In addition, the “E. coli log10 reduction of CFUs” value with E. coli BL21(DE3) (setting [6]) is 1.7 log10. Also, in the series with E. coli BL21(DE3) (100 µM flavin, 15 min irradiation), the “E. coli log10 reduction of CFUs” value is listed as 1.8 log10.

Take `CCCCCCCCn1c(=O)nc2n(CCNC(=N)N)c3cc(Br)c(Br)cc3nc-2c1=O` [Flavin F4]: in series [1], the “% cleaved ssRNA” value was 42%. For the same compound, in the series on pDNA (pUC18), the “% NC (nicked coiled pDNA after photocleavage)” value came to 21%. Moreover, in series [2], the “λ1 (S0 → S1 absorption band)” value is given as 444 nm, the “λ2 (S0 → S2 absorption band)” value was 340 nm and the “λem (emission wavelength)” value amounted to 513 nm. Also, in series [3], the “ФF fluorescence quantum yield” value was below 2% and the “φF fluorescence quantum yield” value is given as 0.011 ± 0.010. Moreover, the “E. coli log10 reduction of CFUs” value in the series with E. coli BL21(DE3) (setting [4]) is 2.8 log10. The “E. coli reduction of bacteria” value in the series with E. coli BL21(DE3) (100 µM flavin, 1 min irradiation) is on record as above 99.99%. Also, the “E. coli log10 reduction of CFUs” value in the series with E. coli BL21(DE3) (100 µM flavin, 1 min irradiation (2.10 J/cm^2), calculated vs t0 = 7.9) was 4.1 log10 and > 4 log10. Besides, the “E. coli log10 reduction of CFUs” value in the series on E. coli BL21(DE3) (setting [6]) is listed as 8.7 log10. Besides, in the series with E. coli BL21(DE3) (15 min irradiation at 11 μM), the “bacterial inactivation, log10 reduction” value is reported as above 3 log10.
